{"source": "paper PMC12689286", "about": "“Enhanced therapeutics of cabazitaxel via polycarboxylate conjugation: improved solubility, safety, and antitumor efficacy” (Frontiers in Immunology, 2025)", "key": {"A549": {"system": "A549", "assay": "MTS cytotoxicity, A549", "type": "cell-based", "details": "Homo sapiens", "experimental": "(§1) Human cancer cell lines were cultured in basic medium (10% fetal bovine serum (FBS)+1% double antibody solution) (Biological Industries) at 37°C in a 5% CO2 incubator. Effects of CTXs on cell proliferation and viability were measured by an MTS (Promega Corporation) assay. Absorbance values at 490 nm were measured using a microplate reader (Thermo Scientific, Varioskan Flash) ([22])."}, "H358": {"system": "H358", "assay": "MTS cytotoxicity, H358", "type": "cell-based", "details": "Homo sapiens, NCI-H358", "experimental": "as §1"}, "L-02": {"system": "L-02", "assay": "MTS cytotoxicity, L-02 (non-tumor)", "type": "cell-based", "details": "Homo sapiens, L02, L-02 non-tumor cell line", "experimental": "as §1"}, "Excretion (urine, feces)": {"assay": "Excretion (urine, feces)", "type": "in vivo", "details": "SD rats, 6 μmol/kg iv", "procedure": "Male and female SD rats (200–220 g) received intravenous injections of CTX or CTX-DTPA (6 μmol/kg). […] Blood samples were collected at 5 min to 24 h post-dose. Tissues (heart, liver, spleen, lung, kidney, thymus) and excreta were collected at 15 min, 2 h, 4 h, and 12 h. Plasma and tissue samples were processed by liquid-liquid extraction with n-butanol and analyzed via LC-MS/MS (Agilent Poroshell 120 EC-C18 column; 0.05% formic acid/acetonitrile gradient). Pharmacokinetic parameters were calculated using DAS 2.0 via non-compartmental analysis."}, "HT-29": {"system": "HT-29", "assay": "MTS cytotoxicity, HT-29", "type": "cell-based", "details": "Homo sapiens; HT-29, MTS", "experimental": "as §1"}, "[1]": {"assay": "Lipid-aqueous (octanol/water) partition coefficient", "type": "physicochemical", "details": "room temperature", "experimental": "CTXs were dissolved in octanol, and an equal volume of water was added, followed by shaken at 100 rpm for 24 h at room temperature. The upper octanol phase and lower water phase were separated by centrifugation. The supernatant was analyzed by HPLC (Bruker SolanX 70 FT-MS; Agilent 6540TOF) ([21])."}, "HCT 116": {"system": "HCT 116", "assay": "MTS cytotoxicity, HCT 116", "type": "cell-based", "details": "Homo sapiens; HCT 116, MTS", "experimental": "as §1"}, "[2]": {"assay": "Systemic toxicity in H22 tumor-bearing mice (body weight, blood count)", "type": "in vivo, KM mice", "details": "H22 mice, throughout treatment, across all dose groups (9.6 and 19.1 μmol/kg)", "experimental": "(§2) H22 hepatoma model: Female KM mice were subcutaneously implanted with H22 cells (2×10^6 cells/mouse) and assigned to six groups: (a) Vehicle control; (b) CTX (9.6 μmol/kg in 5% glucose with 2.5% ethanol/2.5% Tween 80); (c) CTX-TTHA (9.6 μmol/kg in saline); (d) CTX-DTPA (9.6 μmol/kg in saline); (e) CTX-TTHA (19.1 μmol/kg in saline); (f) CTX-DTPA (19.1 μmol/kg in saline).\n(§3) Treatments were administered every other day for four doses (three doses for CTX group due to weight loss >15%). Peripheral blood samples were collected for complete blood count analysis using an automated hematology analyzer."}, "SK-OV-3": {"system": "SK-OV-3", "assay": "MTS cytotoxicity, SK-OV-3", "type": "cell-based", "details": "Homo sapiens; SK-OV-3, MTS", "experimental": "as §1"}, "Fadu": {"system": "Fadu", "assay": "MTS cytotoxicity, Fadu", "type": "cell-based", "details": "Homo sapiens", "experimental": "as §1"}, "MCF-7": {"system": "MCF-7", "assay": "MTS cytotoxicity, MCF-7", "type": "cell-based", "details": "Homo sapiens, MCF7; MCF-7, MTS", "experimental": "as §1"}, "Bel-7402": {"system": "Bel-7402", "assay": "MTS cytotoxicity, Bel-7402", "type": "cell-based", "details": "Homo sapiens; Bel-7402, MTS", "experimental": "as §1"}, "[3]": {"assay": "Plasma pharmacokinetics (non-compartmental)", "experimental": "(§4) Male and female SD rats (200–220 g) received intravenous injections of CTX or CTX-DTPA (6 μmol/kg). CTX was dissolved in 2.5% Tween 80/2.5% EtOH/saline, while CTX-DTPA used saline alone. Blood samples were collected at 5 min to 24 h post-dose. Tissues (heart, liver, spleen, lung, kidney, thymus) and excreta were collected at 15 min, 2 h, 4 h, and 12 h. Plasma and tissue samples were processed by liquid-liquid extraction with n-butanol and analyzed via LC-MS/MS (Agilent Poroshell 120 EC-C18 column; 0.05% formic acid/acetonitrile gradient). Pharmacokinetic parameters were calculated using DAS 2.0 via non-compartmental analysis."}, "MCF-7 xenografts": {"system": "MCF-7 xenografts", "assay": "MCF-7 breast cancer xenograft, tumor volume", "type": "in vivo, BALB/c nude mice", "details": "MCF-7 xenograft, 9.6 μmol/kg", "experimental": "All animal experiments were conducted in accordance with protocols approved by the Institutional Animal Care and Use Committee of Peking Union Medical College. Male BALB/c nude mice (6–8 weeks old) and female KM mice (6–8 weeks old) were purchased from Charles River Laboratories (Beijing, China) and maintained under specific pathogen-free conditions.\nMCF-7 Breast Cancer Model: Female BALB/c nude mice bearing MCF-7 xenografts (2×10^6 cells/mouse) were randomized into treatment groups as described above, with an adjusted dose of 9.6 μmol/kg for all CTX formulations."}, "[4]": {"system": "H22 hepatocellular carcinoma tumors", "assay": "H22 hepatoma model, tumor growth inhibition", "type": "in vivo, KM mice", "details": "H22, high dose 19.1 μmol/kg in saline, every other day, four doses", "experimental": "as §2, §3"}, "H520": {"system": "H520", "assay": "MTS cytotoxicity, H520", "type": "cell-based", "details": "Homo sapiens, NCI-H520", "experimental": "as §1"}, "H460": {"system": "H460", "assay": "MTS cytotoxicity, H460", "type": "cell-based", "details": "Homo sapiens, NCI-H460", "experimental": "as §1"}, "LN229": {"system": "LN229", "assay": "MTS cytotoxicity, LN229", "type": "cell-based", "details": "Homo sapiens, LN-229", "experimental": "as §1"}, "Tissue distribution": {"assay": "Tissue distribution", "details": "SD rats 6 μmol/kg iv, dosed compound; for concentration at 15 min: both, SD, rat, in vivo, iv, 6 μmol/kg, tissue concentration", "experimental": "as §4"}, "DU145 cells": {"system": "DU145 cells", "assay": "Cell cycle arrest (PI, flow cytometry)", "type": "cell-based, human", "details": "24 h", "experimental": "Cells were incubated with drugs for 24 h. Fixed cells were incubated with RNase A and stained with propidium iodide (PI). DNA content was determined in a flow cytometer (BD FACS CaliburTM Flow Cytometer, USA) ([23])."}, "PC-3": {"system": "PC-3", "assay": "MTS cytotoxicity, PC-3", "type": "cell-based", "details": "Homo sapiens; PC-3, MTS", "experimental": "as §1"}, "[5]": {"details": "both, SD, rat, in vivo, iv, 6 umol/kg"}}}
{"smiles": "COC1C(=O)C2(C)C(OC)CC3OCC3(OC(C)=O)C2C(OC(=O)c2ccccc2)C2(O)CC(OC(=O)C(OC(=O)CN(CCN(CCN(CC(=O)O)CC(=O)O)CC(=O)O)CC(=O)O)C(NC(=O)OC(C)(C)C)c3ccccc3)C(C)=C1C2(C)C", "note": "(centres unmarked) [CTX-DTPA]", "values": [{"measurement": "IC50", "setting": "A549", "result": "3 ± 1.1", "unit": "nM"}, {"measurement": "IC50", "setting": "H358", "result": "1.6 ± 0.7", "unit": "nM"}, {"measurement": "IC50", "setting": "L-02", "result": "8.8 ± 3.6", "unit": "nM"}, {"measurement": "urinary excretion of intact CTX-DTPA", "setting": "Excretion (urine, feces); cumulative", "result": "2191.14 ± 853.66", "unit": "µg/kg"}, {"measurement": "renal excretion", "setting": "Excretion (urine, feces); within 24 hours", "result": "39.8 ± 12.7", "unit": "%"}, {"measurement": "IC50", "setting": "HT-29", "result": "6.7 ± 2.9", "unit": "nM"}, {"measurement": "logP at 24 h", "setting": "[1]", "result": "0.49 ± 0.12"}, {"measurement": "IC50", "setting": "HCT 116", "result": "3.7 ± 1", "unit": "nM"}, {"measurement": "WBC counts", "setting": "[2]", "result": "3.50-5.60 ×10^9/L"}, {"measurement": "IC50", "setting": "SK-OV-3", "result": "5.4 ± 1.3", "unit": "nM"}, {"measurement": "IC50", "setting": "Fadu", "result": "1.9 ± 0.6", "unit": "nM"}, {"measurement": "IC50", "setting": "MCF-7", "result": "6.8 ± 2.4", "unit": "nM"}, {"measurement": "IC50", "setting": "Bel-7402", "result": "2.9 ± 0.9", "unit": "nM"}, {"measurement": "elimination half-life relative to CTX", "setting": "[3]; SD rats, 6 μmol/kg iv, longer than CTX", "result": 5.1, "unit": "fold"}, {"measurement": "MRT0-t", "setting": "[3]; SD rats, 6 μmol/kg iv, plasma, dosed compound itself", "result": "1.04 ± 0.57", "unit": "H"}, {"measurement": "AUC(0-t)", "setting": "[3]; [5]", "result": "1330 ± 777", "unit": "ng·h/mL"}, {"measurement": "Cmax", "setting": "[3]; [5]", "result": "4360 ± 2880", "unit": "ng/mL"}, {"measurement": "Vd", "setting": "[3]; [5]", "result": 69.9, "unit": "L/kg"}, {"measurement": "clearance", "setting": "[3]; [5]", "result": 126, "unit": "mL/min/kg"}, {"measurement": "tumor volume at study endpoint", "setting": "MCF-7 xenografts", "result": "111 ± 18", "unit": "mm³"}, {"measurement": "tumor growth inhibition", "setting": "[4]", "result": 80.5, "unit": "%"}, {"measurement": "IC50", "setting": "H520", "result": "2 ± 1.3", "unit": "nM"}, {"measurement": "IC50", "setting": "H460", "result": "2.4 ± 1.1", "unit": "nM"}, {"measurement": "IC50", "setting": "LN229", "result": "5.8 ± 2.2", "unit": "nM"}, {"measurement": "concentration at 15 min", "setting": "Tissue distribution; spleen, 15 min", "result": "0.39 ± 0.04", "unit": "ng/g"}, {"measurement": "concentration at 15 min", "setting": "Tissue distribution; thymus, 15 min", "result": "0.62 ± 0.05", "unit": "ng/g"}, {"measurement": "tissue concentration", "setting": "Tissue distribution; heart, 15 min", "result": "* 0.27 ± 0.04 μg/kg"}, {"measurement": "tissue concentration", "setting": "Tissue distribution; heart, 2 h", "result": "*** 0.07 ± 0.03 μg/kg"}, {"measurement": "tissue concentration", "setting": "Tissue distribution; heart, 4 h", "result": "*** 0.04 ± 0.00 μg/kg"}, {"measurement": "tissue concentration", "setting": "Tissue distribution; heart, 12 h", "result": "** 0.06 ± 0.03 μg/kg"}, {"measurement": "tissue concentration", "setting": "Tissue distribution; kidney, 15 min", "result": "**** 41.08 ± 9.73 μg/kg"}, {"measurement": "tissue concentration", "setting": "Tissue distribution; kidney, 2 h", "result": "** 4.96 ± 1.67 μg/kg"}, {"measurement": "tissue concentration", "setting": "Tissue distribution; kidney, 4 h", "result": "*** 1.55 ± 0.31 μg/kg"}, {"measurement": "tissue concentration", "setting": "Tissue distribution; kidney, 12 h", "result": "**** 1.36 ± 0.84 μg/kg"}, {"measurement": "tissue concentration", "setting": "Tissue distribution; liver, 15 min", "result": "*** 37.74 ± 16.89 μg/kg"}, {"measurement": "tissue concentration", "setting": "Tissue distribution; liver, 2 h", "result": "** 7.21 ± 1.30 μg/kg"}, {"measurement": "tissue concentration", "setting": "Tissue distribution; liver, 4 h", "result": "* 6.74 ± 5.04 μg/kg"}, {"measurement": "tissue concentration", "setting": "Tissue distribution; liver, 12 h", "result": "* 0.65 ± 0.42 μg/kg"}, {"measurement": "tissue concentration", "setting": "Tissue distribution; lung, 15 min", "result": "*** 2.36 ± 1.29 μg/kg"}, {"measurement": "tissue concentration", "setting": "Tissue distribution; lung, 2 h", "result": "**** 0.48 ± 0.50 μg/kg"}, {"measurement": "tissue concentration", "setting": "Tissue distribution; lung, 4 h", "result": "**** 0.13 ± 0.01 μg/kg"}, {"measurement": "tissue concentration", "setting": "Tissue distribution; lung, 12 h", "result": "* 1.10 ± 0.45 μg/kg"}, {"measurement": "tissue concentration", "setting": "Tissue distribution; spleen, 15 min", "result": "*** 0.39 ± 0.04 μg/kg"}, {"measurement": "tissue concentration", "setting": "Tissue distribution; spleen, 2 h", "result": "**** 0.09 ± 0.03 μg/kg"}, {"measurement": "tissue concentration", "setting": "Tissue distribution; spleen, 4 h", "result": "** 0.05 ± 0.02 μg/kg"}, {"measurement": "tissue concentration", "setting": "Tissue distribution; spleen, 12 h", "result": "** 0.05 ± 0.03 μg/kg"}, {"measurement": "tissue concentration", "setting": "Tissue distribution; thymus, 15 min", "result": "** 0.62 ± 0.05 μg/kg"}, {"measurement": "tissue concentration", "setting": "Tissue distribution; thymus, 2 h", "result": "* 0.10 ± 0.07 μg/kg"}, {"measurement": "tissue concentration", "setting": "Tissue distribution; thymus, 4 h", "result": "* 0.05 ± 0.01 μg/kg"}, {"measurement": "tissue concentration", "setting": "Tissue distribution; thymus, 12 h", "result": "**** 0.06 ± 0.04 μg/kg"}, {"measurement": "cells arrested in G2/M", "setting": "DU145 cells; DU145, 1 nM", "result": "16.4 ± 1.0", "unit": "%"}, {"measurement": "cells arrested in G2/M", "setting": "DU145 cells; DU145, 25 nM", "result": "58.9 ± 16.1", "unit": "%"}, {"measurement": "IC50", "setting": "PC-3", "result": "4.1 ± 0.7", "unit": "nM"}]}
